From patent US5710124A, “Method for combatting bovine mastitis” (Novartis Corporation, priority 1993, dated 1998)
Ends that are not written are not given here.

Assays:
[1] = test system: Staphylococcus aureus Newbold 305; assay: Effect on S. aureus in milk (cfu, percent survival); assay type: cell-based; conditions: for % survival: 37° C. 30 min
Protocol: Effect of Gallidermin on […] in milk Staphylococcus aureus Newbold 305 was grown in M17 broth (Merck) at 37° C. to an optical density at 600 nm of 1.0. Cells were collected by centrifugation and washed in 20 mM Tris-HCl pH 8.0. The bacterial pellet was resuspended in milk at a density of about 10^7 cells/ml. 1 ml aliquots of this suspension were incubated in eppendorf tubes with various amounts of Nisin, Lacticin 481 and Gallidermin. Incubations were at 37° C. for 30 min. A control with no antimicrobial added was run in parallel. After incubation the samples were centrifuged to obtain the cellular pellet, which was washed 2 times with 1 ml of 20 mM Tris-HCl pH 8.0 and resuspended in 1 ml of this buffer. […] of the appropriate dilutions were plated on M17 agar plates containing 0.5% glucose and incubated overnight at 37° C. Colony forming units (cfu) were determined and percent survival was calculated relative to the control.

[2] = test system: S. aureus Newbold 305; assay: MIC plate assay; assay type: cell-based, Staphylococcus aureus
Protocol: (§1) The MICs (Minimal Inhibitory Concentrations) of Gallidermin against […] and Streptococcus diacetylactis were determined. S. aureus Newbold 305 is a causative agent of Mastitis, S. diacetylactis is used in the manufacture of yoghurt and cheese.
(§2) Appropriate dilutions Gallidermin (300, 100, 30, 10, 3, 1, 0.3, 0.1 µg/ml) were prepared in milk and in M17 broth (Merck) and allowed to stand at room temperature for 30 min.
(§3) Then, […] aliquots of the solutions were spotted on M17 agar plates containing 0.5% of glucose. These plates had been overlaid with softagar (0.5% agarose) seeded with 1% of an A600=1 culture of either S. aureus or S. diacetylactis. The spots were allowed to dry, then the plates were incubated at 30° C. overnight.
(§4) The MICs were determined as the lowest concentration of antimicrobial protein causing the formation of a clear halo in the bacterial lawn.

[3] = test system: Streptococcus diacetylactis; assay: MIC plate assay; assay type: cell-based; conditions: for MIC: S. diacetylactis
Protocol: as §1, §2, §3, §4

[4] = test system: Staphylococcus aureus; assay: Subclinical bovine mastitis infection model, intramammary treatment; assay type: in vivo, cows
From the text: Preliminary experiments for evaluating the potential of Gallidermin, Epidermin or of their pharmaceutically acceptable acid addition salts in subclinical bovine mastitis
Non-infected cows are selected based on non recovery of Staphylococcus aureus from two milk samples taken one day apart from all quarters. Then, 3 quarters are inoculated via the intramammary route using a suspension of Staphylococcus aureus. The 4th quarter serves as control. During the two to four weeks after inoculation, milk samples are taken from all quarters at least 3 times to see whether Staphylococcus aureus can be recovered, and therefore whether the quarter has become infected. A quarter is defined as infected, if Staphylococcus aureus is recovered from at least two of these milk samples. Treatments are assigned randomly to infected quarters and injected via the intramammary route. Milk samples are taken daily until a minimum of 14 days after the last treatment. A quarter is considered as cured if milk samples from that quarter become negative (i.e., no Staphylococcus aureus is recovered) within 7 days after the last treatment and stay negative throughout the 14 day sampling period.
This experimental model is used to have a fixed framework on which to evaluate treatments. To work with Staphylococcus aureus has the advantage that it is the most difficult Gram positive bacterium to treat and one of the most important bacteria causing bovine mastitis. Therefore, cure rates should be expected to be lower than for other Gram positive bacteria, such as Streptococci and coagulase-negative Staphylococci.
In addition, the infection is mild as it should be for subclinical mastitis.
To optimize work load in relation to man power, 8 to 16 cows are enrolled in each trial. Trials normally last 5 weeks.

For “Gallidermin (IASKFLCTPGCAKTGSFNSYCC; not fully specified; ends and bridges not checked; also: lantibiotic; UniProt P21838 31-52, looked up) [natural product produced by the microorganism Staphylococcus gallinarum; lanthionine containing peptide]”, the “activity against Staphylococcus aureus in the presence of milk” value (“activity against Staphylococcus aureus” below) [1] was “retains a high specific activity”, the “% survival” value ([1]; 0.3 µg/ml) was 29% and the “% survival” value ([1]; 1 µg/ml) was 12%. For the same substance, the “% survival” value ([1]; 3 µg/ml) was 1%, the “% survival” value ([1]; 10 µg/ml) was 0.01% and the MIC ([2]; dilutions in M17 broth) was 1 mug/ml. The MIC ([2]; dilutions in milk) was 0.3 mug/ml, the MIC ([3]; dilutions in M17 broth) was 0.3 mug/ml and the MIC ([3]; dilutions in milk) was 1 mug/ml. The “activity against Streptococcus diacetylactis in milk versus broth” value ([3]; milk and M17 broth) was “comparable activities”, the “% of treated group positive” value ([4]; 3 × 1 mg, 27 qutrs, day 0 (before treatment)) was 93% and the “% of treated group positive” value ([4]; 3 × 1 mg, 27 qutrs, day 1) was 37%. The “% of treated group positive” value ([4]; 3 × 1 mg, 27 qutrs, day 2) was 11%, the “% of treated group positive” value ([4]; 3 × 1 mg, 27 qutrs, day 3) was 26% and the “% of treated group positive” value ([4]; 3 × 1 mg, 27 qutrs, day 4) was 56%. For the same substance, the “% of treated group positive” value ([4]; 3 × 1 mg, 27 qutrs, day 5) was 59%, the “% of treated group positive” value ([4]; 3 × 1 mg, 27 qutrs, day 7) was 56% and the “% of treated group positive” value ([4]; 3 × 1 mg, 27 qutrs, day 8) was 56%. For the same substance, the “% of treated group positive” value ([4]; 3 × 1 mg, 27 qutrs, day 9) was 52%, the “% of treated group positive” value ([4]; 3 × 1 mg, 27 qutrs, day 10) was 56% and the “% of treated group positive” value ([4]; 3 × 1 mg, 27 qutrs, day 11) was 56%. The “% of treated group positive” value ([4]; 3 × 1 mg, 27 qutrs, day 12) was 52%, the “% of treated group positive” value ([4]; 3 × 1 mg, 27 qutrs, day 14) was 48% and the “% of treated group positive” value ([4]; 3 × 1 mg, 27 qutrs, day 15) was 52%. For the same substance, the “% of treated group positive” value ([4]; 14 × 0.1 mg, 24 qutrs, day 0 (before treatment)) was 96%, the “% of treated group positive” value ([4]; 14 × 0.1 mg, 24 qutrs, day 1) was 88% and the “% of treated group positive” value ([4]; 14 × 0.1 mg, 24 qutrs, day 2) was 88%. For the same substance, the “% of treated group positive” value ([4]; 14 × 0.1 mg, 24 qutrs, day 3) was 71%, the “% of treated group positive” value ([4]; 14 × 0.1 mg, 24 qutrs, day 4) was 58% and the “% of treated group positive” value ([4]; 14 × 0.1 mg, 24 qutrs, day 5) was 67%. For the same substance, the “% of treated group positive” value ([4]; 14 × 0.1 mg, 24 qutrs, day 7) was 50%, the “% of treated group positive” value ([4]; 14 × 0.1 mg, 24 qutrs, day 8) was 67% and the “% of treated group positive” value ([4]; 14 × 0.1 mg, 24 qutrs, day 9) was 71%. The “% of treated group positive” value ([4]; 14 × 0.1 mg, 24 qutrs, day 10) was 88%, the “% of treated group positive” value ([4]; 14 × 0.1 mg, 24 qutrs, day 11) was 83% and the “% of treated group positive” value ([4]; 14 × 0.1 mg, 24 qutrs, day 12) was 88%. For the same substance, the “% of treated group positive” value ([4]; 14 × 0.1 mg, 24 qutrs, day 14) was 79%, the “% of treated group positive” value ([4]; 14 × 0.1 mg, 24 qutrs, day 15) was 88% and the “% of treated group positive” value ([4]; 14 × 0.1 mg, 24 qutrs, day 16) was 83%. For the same substance, the “% of treated group positive” value ([4]; 14 × 0.1 mg, 24 qutrs, day 17) was 83%, the “% of treated group positive” value ([4]; 14 × 0.1 mg, 24 qutrs, day 19) was 79% and the “% of treated group positive” value ([4]; 14 × 0.1 mg, 24 qutrs, day 21) was 83%.

With Lacticin 481 the “activity against Staphylococcus aureus” value [1] was “strongly inhibited”, the “% survival” value ([1]; 1 µg/ml) was 74% and the “% survival” value ([1]; 3 µg/ml) was 51%. The “% survival” value ([1]; 10 µg/ml) was 36%, the “% survival” value ([1]; 30 µg/ml) was 30% and the “% survival” value ([1]; 100 µg/ml) was 12%.

In the case of Nisin, the “activity against Staphylococcus aureus” value [1] is reported as “strongly inhibited”, the “% survival” value ([1]; 3 µg/ml) is reported as 65% and the “% survival” value ([1]; 10 µg/ml) is reported as 15%. For the same substance, the “% survival” value ([1]; 30 µg/ml) was 1.8% and the “% survival” value ([1]; 100 µg/ml) was 0.2%.
